# In PMC10648875 (Antimicrobial Agents and Chemotherapy, 2023):
# Values joined by “and” are separate entries in the source; they are usually repeats but may differ in a detail not shown here. Identical values can stand only once. Like-named read-outs stand apart in the source and are kept apart here.
# Legend:
# [1] = system: PAM4885 producing SPM-1; assay: MIC, engineered isogenic strain; assay type: cell-based, P. aeruginosa; conditions: SPM-1, class B; BLIs at fixed 4 µg/mL
# [2] = system: surveillance isolates of carbapenem-resistant strains of Enterobacterales; assay: MIC testing of SENTRY surveillance CRE isolates (Table 4, Table S4); assay type: cell-based; conditions: for % Inhibited: at ≤8 µg/mL β-lactam (IMP/REL ≤1/4, MEM/VAB ≤4/8 (≤8/8) µg/mL), footnote b; for MIC50: read-out: MIC50
# [3] = system: Escherichia coli NCTC 13353 (ECM7514), CTX-M-15; assay: MIC, reference strain; assay type: cell-based; conditions: Escherichia coli, NCTC13353; CTX-M-15; BLI at the fixed concentration in brackets; read-out: MIC
# Description: (§1) Other BL/BLI combinations were tested at their recommended BLI concentrations. MIC values for the partner antibiotics and BLIs alone were also determined (Table 2; Table S1). All investigational and marketed BLIs enhanced the potency of antibiotics according to their spectrum of inhibition. MIC values against CLSI-approved QC strains were within acceptable ranges for drugs and combinations tested (Table 3).
# (§2) Isolates were tested for antimicrobial susceptibility using the broth microdilution methodology per CLSI M07 (2018) guidelines ([40]). JMI Laboratories produced frozen-form 96-well panels with cation-adjusted Mueller-Hinton broth as the testing medium. Current CLSI quality assurance practices were followed when performing the susceptibility tests. MIC values were validated by concurrently testing the following CLSI-recommended ([27]) QC reference strains: E. coli NCTC 13353 (CTX-M-15), Klebsiella pneumoniae ATCC BAA-2814 (KPC-3), Klebsiella pneumoniae ATCC BAA-1705 (KPC-2), and K. pneumoniae ATCC 700603 (SHV-18). The inoculum density during susceptibility testing was monitored by bacterial colony counts. Where applicable, QC ranges for tested reference strains were those approved or published by the CLSI ([27]). Meropenem was purchased from Carbosynth; ceftolozane was synthesized at Acme Bioscience, Palo Alto, CA, USA; all other antibiotics were from Sigma Aldrich. Xeruborbactam was synthesized at Qpex Biopharma, San Diego, CA, USA. Avibactam was purchased from eNovation, Chemicals LLC, Bridgewater, NJ, USA. Vaborbactam was synthesized at The Medicines Company, San Diego, CA. Relebactam, taniborbactam, and relebactam were synthesized at Acme Bioscience.
# [4] = system: PAM4846 producing OXA-9; assay: MIC, engineered isogenic strain; assay type: cell-based, P. aeruginosa; conditions: OXA-9, class D; BLIs at fixed 4 µg/mL
# [5] = system: P. aeruginosa BAA-3197 (PA5257), KPC-2; assay: MIC, reference strain; assay type: cell-based; conditions: Pseudomonas aeruginosa, BAA3197; KPC-2; BLI at the fixed concentration in brackets; read-out: MIC
# [6] = system: K. pneumoniae ATCC BAA-2814 (KP1074), KPC-3; assay: MIC, reference strain; assay type: cell-based
# Description: as §1
# as §2, with “([27]).” for “([27]). Meropenem was purchased from Carbosynth; ceftolozane was synthesized at Acme Bioscience, Palo Alto, CA, USA; all other antibiotics were from Sigma Aldrich. Xeruborbactam was synthesized at Qpex Biopharma, San Diego, CA, USA. Avibactam was purchased from eNovation, Chemicals LLC, Bridgewater, NJ, USA. Vaborbactam was synthesized at The Medicines Company, San Diego, CA. Relebactam, taniborbactam, and relebactam were synthesized at Acme Bioscience.”
# [7] = system: Klebsiella pneumoniae ATCC 700603 (KPM2881), SHV-18; assay: MIC, reference strain; assay type: cell-based; conditions: Klebsiella pneumoniae, ATCC700603; SHV-18; BLI at the fixed concentration in brackets; read-out: MIC
# Description: as §1
# as §2, with “([27]).” for “([27]). Meropenem was purchased from Carbosynth; ceftolozane was synthesized at Acme Bioscience, Palo Alto, CA, USA; all other antibiotics were from Sigma Aldrich. Xeruborbactam was synthesized at Qpex Biopharma, San Diego, CA, USA. Avibactam was purchased from eNovation, Chemicals LLC, Bridgewater, NJ, USA. Vaborbactam was synthesized at The Medicines Company, San Diego, CA. Relebactam, taniborbactam, and relebactam were synthesized at Acme Bioscience.”
# [8] = system: E. coli CDC 0069 (EC1106), NDM-1; assay: MIC, reference strain; assay type: cell-based; conditions: Escherichia coli, BLI at the fixed concentration in brackets, read-out: MIC
# Description: as §1
# as §2, with “([27]).” for “([27]). Meropenem was purchased from Carbosynth; ceftolozane was synthesized at Acme Bioscience, Palo Alto, CA, USA; all other antibiotics were from Sigma Aldrich. Xeruborbactam was synthesized at Qpex Biopharma, San Diego, CA, USA. Avibactam was purchased from eNovation, Chemicals LLC, Bridgewater, NJ, USA. Vaborbactam was synthesized at The Medicines Company, San Diego, CA. Relebactam, taniborbactam, and relebactam were synthesized at Acme Bioscience.”
# [9] = system: K. pneumoniae CDC 0135 (KP1291), VIM-1; assay: MIC, reference strain; assay type: cell-based; conditions: Klebsiella pneumoniae, BLI at the fixed concentration in brackets, read-out: MIC
# Description: as §1
# as §2, with “([27]).” for “([27]). Meropenem was purchased from Carbosynth; ceftolozane was synthesized at Acme Bioscience, Palo Alto, CA, USA; all other antibiotics were from Sigma Aldrich. Xeruborbactam was synthesized at Qpex Biopharma, San Diego, CA, USA. Avibactam was purchased from eNovation, Chemicals LLC, Bridgewater, NJ, USA. Vaborbactam was synthesized at The Medicines Company, San Diego, CA. Relebactam, taniborbactam, and relebactam were synthesized at Acme Bioscience.”
# [10] = system: K. pneumoniae ATCC BAA-1705 (KPM1123), KPC-2; assay: MIC, reference strain; assay type: cell-based
# Description: as §1
# as §2, with “([27]).” for “([27]). Meropenem was purchased from Carbosynth; ceftolozane was synthesized at Acme Bioscience, Palo Alto, CA, USA; all other antibiotics were from Sigma Aldrich. Xeruborbactam was synthesized at Qpex Biopharma, San Diego, CA, USA. Avibactam was purchased from eNovation, Chemicals LLC, Bridgewater, NJ, USA. Vaborbactam was synthesized at The Medicines Company, San Diego, CA. Relebactam, taniborbactam, and relebactam were synthesized at Acme Bioscience.”
# [11] = system: PAM4800 producing GES-19; assay: MIC, engineered isogenic strain; assay type: cell-based, P. aeruginosa; conditions: GES-19, class A; BLIs at fixed 4 µg/mL
# [12] = system: PAM4876 producing OXA-72; assay: MIC, engineered isogenic strain; assay type: cell-based, P. aeruginosa; conditions: OXA-72, class D; BLIs at fixed 4 µg/mL
# [13] = system: PAM4196 producing IMP-13; assay: MIC, engineered isogenic strain; assay type: cell-based, P. aeruginosa; conditions: IMP-13, class B; BLIs at fixed 4 µg/mL
compound,measurement,setting,value
"C[C@@H](O)[C@H]1C(=O)N2C(C(=O)O)=C(S[C@@H]3CN[C@H](C(=O)N(C)C)C3)[C@H](C)[C@H]12 [MEM, meropenem]",MIC,[1],32 µg/mL
same,MIC90,[2],16 and > 32
same,% Inhibited,[2]; All surveillance CRE,30.20%
same,MIC50,[2]; All surveillance CRE,32 µg/mL
same,MIC90,"[2]; All surveillance CRE, read-out: MIC90",> 32 µg/mL
same,% Inhibited,[2]; KPC subset,29.50%
same,MIC50,[2]; KPC subset,32 µg/mL
same,MIC90,"[2]; KPC subset, read-out: MIC90",> 32 µg/mL
same,% Inhibited,[2]; MBL subset,9.00%
same,MIC50,[2]; MBL subset,> 32 µg/mL
same,MIC90,"[2]; MBL subset, read-out: MIC90",> 32 µg/mL
same,% Inhibited,[2]; NDM subset,6.30%
same,MIC50,[2]; NDM subset,> 32 µg/mL
same,MIC90,"[2]; NDM subset, read-out: MIC90",> 32 µg/mL
same,% Inhibited,[2]; No MBL subset,39.40%
same,MIC50,[2]; No MBL subset,16 µg/mL
same,MIC90,"[2]; No MBL subset, read-out: MIC90",> 32 µg/mL
same,% Inhibited,[2]; Non-CP CRE subset,81.80%
same,MIC50,[2]; Non-CP CRE subset,8 µg/mL
same,MIC90,"[2]; Non-CP CRE subset, read-out: MIC90",16 µg/mL
same,% Inhibited,[2]; OXA-48 subset,37.20%
same,MIC50,[2]; OXA-48 subset,32 µg/mL
same,MIC90,"[2]; OXA-48 subset, read-out: MIC90",> 32 µg/mL
same,% Inhibited,[2]; VIM subset,35.00%
same,MIC50,[2]; VIM subset,16 µg/mL
same,MIC90,"[2]; VIM subset, read-out: MIC90",> 32 µg/mL
same,MIC,[3],≤ 0.03 µg/mL
same,MIC,[4],0.25 µg/mL
same,MIC,[5],> 64 µg/mL
same,MIC,"[6]; Klebsiella pneumoniae, ATCCBAA2814, KPC-3, BLI at the fixed concentration in brackets, read-out: MIC",> 64 µg/mL
same,MIC (number of observations),"[6]; Table S1, repeated QC testing",> 32 µg/mL
same,MIC,[7],≤ 0.03 µg/mL
same,MIC,[8],32 µg/mL
same,MIC,[9],8 µg/mL
same,MIC,"[10]; Klebsiella pneumoniae, ATCCBAA1705, KPC-2, BLI at the fixed concentration in brackets, read-out: MIC",32 µg/mL
same,MIC (number of observations),"[10]; Table S1, repeated QC testing",8 (2)-16 (16)-32 (28) µg/ml
same,MIC,[11],1 µg/mL
same,MIC,[12],2 µg/mL
same,MIC,[13],1 µg/mL
